Patent publication US10670605B2, “Cysteine reactive probes and uses thereof” (The Scripps Research Institute, priority 2015, dated 2020)
Where “and” joins values, the source holds several entries; their conditions need not be identical. Identical values can stand only once. Each block holds one compound with its values, some of them ahead of it.

Assays:
Experiment in all cases: Competitive isoTOP-ABPP, cell lysates
Type in all cases: binding
MLTK C22 (Q9NYL2) = MLTK C22 (Q9NYL2) (Homo sapiens, UniProt Q9NYL2); conditions: for R value (DMSO/fragment): in vitro, MDA-MB-231; for isoTOP-ABPP ratio Q9NYL2_C22: invitro, 231; for isoTOP-ABPP ratio (reactivity profile), Q9NYL2_C22: 500 μm in-vitro ramos_231
Chain of MLTK C22 (Q9NYL2) (Q9NYL2 whole entry, the tested form may be a part): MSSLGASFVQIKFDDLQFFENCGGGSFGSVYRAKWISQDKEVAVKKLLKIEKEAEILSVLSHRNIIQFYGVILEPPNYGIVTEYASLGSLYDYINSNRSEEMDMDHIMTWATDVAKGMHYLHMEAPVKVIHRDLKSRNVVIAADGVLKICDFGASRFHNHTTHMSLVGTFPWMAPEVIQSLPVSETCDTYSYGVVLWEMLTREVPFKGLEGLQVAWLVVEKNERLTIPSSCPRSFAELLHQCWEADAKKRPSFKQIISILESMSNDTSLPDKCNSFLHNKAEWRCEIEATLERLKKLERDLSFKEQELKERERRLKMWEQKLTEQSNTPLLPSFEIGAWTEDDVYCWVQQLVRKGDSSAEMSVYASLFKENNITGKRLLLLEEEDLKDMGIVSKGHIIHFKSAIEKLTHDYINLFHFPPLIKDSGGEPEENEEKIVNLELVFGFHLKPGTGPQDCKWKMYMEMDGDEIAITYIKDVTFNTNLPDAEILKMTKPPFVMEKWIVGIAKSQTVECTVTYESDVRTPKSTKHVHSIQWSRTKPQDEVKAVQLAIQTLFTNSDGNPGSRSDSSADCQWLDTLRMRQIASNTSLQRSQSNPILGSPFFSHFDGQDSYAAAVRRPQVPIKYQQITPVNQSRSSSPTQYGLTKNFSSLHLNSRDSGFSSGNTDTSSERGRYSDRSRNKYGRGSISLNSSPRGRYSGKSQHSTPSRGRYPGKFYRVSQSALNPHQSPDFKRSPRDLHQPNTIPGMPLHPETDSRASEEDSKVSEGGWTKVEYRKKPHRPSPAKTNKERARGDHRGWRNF

NR3C1 C302 (P04150) = target: T1, NR3C1 C302 (P04150) (Homo sapiens, UniProt P04150); conditions: for R value (DMSO/fragment) / isoTOP-ABPP ratio, P04150_C302: 500 μM; for R value (DMSO/fragment): in vitro, MDA-MB-231; for isoTOP-ABPP ratio, P04150_C302: invitro
T1 sequence (P04150 1-777): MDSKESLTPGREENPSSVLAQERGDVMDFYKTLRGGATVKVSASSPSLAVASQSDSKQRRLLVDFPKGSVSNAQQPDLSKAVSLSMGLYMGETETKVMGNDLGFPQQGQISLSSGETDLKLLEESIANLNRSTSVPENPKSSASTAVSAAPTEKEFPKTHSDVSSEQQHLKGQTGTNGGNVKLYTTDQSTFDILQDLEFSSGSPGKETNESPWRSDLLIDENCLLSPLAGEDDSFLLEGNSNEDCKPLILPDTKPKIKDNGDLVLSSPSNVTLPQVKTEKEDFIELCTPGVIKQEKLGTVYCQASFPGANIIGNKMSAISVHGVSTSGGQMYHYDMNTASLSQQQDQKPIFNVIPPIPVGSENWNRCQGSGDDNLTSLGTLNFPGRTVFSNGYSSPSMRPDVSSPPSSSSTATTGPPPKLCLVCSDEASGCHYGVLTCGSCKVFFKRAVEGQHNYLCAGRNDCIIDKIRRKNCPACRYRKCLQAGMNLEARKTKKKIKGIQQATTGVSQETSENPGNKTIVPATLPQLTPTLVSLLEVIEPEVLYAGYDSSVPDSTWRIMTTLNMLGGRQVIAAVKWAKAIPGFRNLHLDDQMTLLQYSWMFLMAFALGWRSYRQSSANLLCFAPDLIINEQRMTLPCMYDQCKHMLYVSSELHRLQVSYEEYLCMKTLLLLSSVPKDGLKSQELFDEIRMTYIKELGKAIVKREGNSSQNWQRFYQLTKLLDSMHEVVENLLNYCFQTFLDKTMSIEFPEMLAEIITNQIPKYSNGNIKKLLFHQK

MGMT C145 (P16455) = target: T2, MGMT C145 (P16455) (Homo sapiens, UniProt P16455); conditions: for isoTOP-ABPP ratio (reactivity profile), P16455_C145: 500 μm in-vitro ramos
T2 sequence (P16455 1-207): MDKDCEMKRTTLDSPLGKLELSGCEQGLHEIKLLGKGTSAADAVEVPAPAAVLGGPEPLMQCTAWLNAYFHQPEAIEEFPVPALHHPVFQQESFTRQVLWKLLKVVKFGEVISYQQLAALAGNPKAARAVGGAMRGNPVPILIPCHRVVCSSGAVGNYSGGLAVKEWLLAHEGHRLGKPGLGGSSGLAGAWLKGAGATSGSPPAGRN

CYR61 C39 (O00622) = target: T3, CYR61 C39 (O00622) (Homo sapiens, UniProt O00622); conditions: for R value (DMSO/fragment): in vitro, MDA-MB-231; for isoTOP-ABPP ratio, O00622_C39: invitro, 231; for isoTOP-ABPP ratio (reactivity profile), O00622_C39: 500 μm in-vitro ramos_231
T3 sequence (O00622 25-381): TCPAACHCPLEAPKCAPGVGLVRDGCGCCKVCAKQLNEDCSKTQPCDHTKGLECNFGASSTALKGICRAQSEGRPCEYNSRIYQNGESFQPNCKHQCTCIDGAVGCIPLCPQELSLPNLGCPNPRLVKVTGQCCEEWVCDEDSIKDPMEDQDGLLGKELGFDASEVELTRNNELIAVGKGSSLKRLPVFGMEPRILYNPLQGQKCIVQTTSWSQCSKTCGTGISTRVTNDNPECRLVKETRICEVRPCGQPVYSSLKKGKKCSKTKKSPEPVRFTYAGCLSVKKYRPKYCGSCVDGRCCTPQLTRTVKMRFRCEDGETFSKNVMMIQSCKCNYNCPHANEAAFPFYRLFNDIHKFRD

Structure (SMILES): O=C(CCl)NC1C(O)OC(CO)C(O)C1O (mixture of isomers) [compound 44]
isoTOP-ABPP reactivity profile ratio, Q9NYL2_C22 (MLTK C22 (Q9NYL2); 500 μm, in-vitro_ramos_231): 0.8

Structure (SMILES): C=CC(=O)N(c1ccccc1)c1ccc(Br)cc1 [compound 5]
isoTOP-ABPP ratio, P16455_C145 (MGMT C145 (P16455); 500 μM, invitro, ramos): 2.0 | isoTOP-ABPP ratio Q9NYL2_C22 (MLTK C22 (Q9NYL2); 500 μM): 20.0

Structure (SMILES): O=C(CCl)N1CCN(S(=O)(=O)c2ccccc2F)CC1 [compound 10]
isoTOP-ABPP ratio, P04150_C302 (NR3C1 C302 (P04150); 231): 4.1

Structure (SMILES): O=C(CCl)NC(=O)NC12CC3CC(CC(C3)C1)C2 [compound 12]
isoTOP-ABPP ratio, P04150_C302 (NR3C1 C302 (P04150); ramos): 1.3

Structure (SMILES): O=C(CCl)N1CCC(C(O)(c2ccccc2)c2ccccc2)CC1 [compound 20]
isoTOP-ABPP ratio (reactivity profile), P16455_C145 (MGMT C145 (P16455)): 20.0 | isoTOP-ABPP ratio (reactivity profile), Q9NYL2_C22 (MLTK C22 (Q9NYL2)): 20.0

Structure (SMILES): O=C(CCl)NC12CC3CC(CC(C3)C1)C2 [compound 21]
isoTOP-ABPP ratio (reactivity profile), Q9NYL2_C22 (MLTK C22 (Q9NYL2)): 2.0

Structure (SMILES): O=C(CCl)N1CCOCC1 [compound 22]
isoTOP-ABPP ratio (reactivity profile), P04150_C302 (NR3C1 C302 (P04150); 500 μm in-vitro ramos): 0.9 | isoTOP-ABPP ratio (reactivity profile), Q9NYL2_C22 (MLTK C22 (Q9NYL2)): 1.0

Structure (SMILES): CC(C)CCOCCNC(=O)CCl [compound 27]
isoTOP-ABPP ratio (reactivity profile), O00622_C39 (CYR61 C39 (O00622)): 1.0 | isoTOP-ABPP ratio (reactivity profile), P04150_C302 (NR3C1 C302 (P04150); 500 μm in-vitro ramos_231): 1.3 and 1.0 | isoTOP-ABPP ratio (reactivity profile), P16455_C145 (MGMT C145 (P16455)): 20.0 | isoTOP-ABPP ratio (reactivity profile), Q9NYL2_C22 (MLTK C22 (Q9NYL2)): 1.1

The remaining lines, values ahead:

R value (DMSO/fragment) (NR3C1 C302 (P04150)): 2.3 | R value (DMSO/fragment) (MGMT C145 (P16455); 500 μM, invitro, ramos): 20.0 | R value (DMSO/fragment) (MLTK C22 (Q9NYL2); 500 μM): 20.0
Structure (SMILES): COc1ccc2c(c1)CCCN2C(=O)CCl [compound 2]

R value (DMSO/fragment) (CYR61 C39 (O00622); 500 μM): 4.0 | R value (DMSO/fragment) (NR3C1 C302 (P04150)): 7.6 | R value (DMSO/fragment) (MGMT C145 (P16455); 500 μM, invitro, ramos): 20.0 | R value (DMSO/fragment) (MLTK C22 (Q9NYL2); 500 μM): 1.8
Structure (SMILES): O=C(CCl)Nc1cc(C(F)(F)F)cc(C(F)(F)F)c1 [compound 3]

R value (DMSO/fragment) (CYR61 C39 (O00622); 250 μM): 2.8 | R value (DMSO/fragment) (MGMT C145 (P16455); 250 μM, in vitro, Ramos): 20.0 | R value (DMSO/fragment) (MLTK C22 (Q9NYL2); 250 μM): 20.0
Structure (SMILES): COc1ccc(C2CC(c3cccs3)=NN2C(=O)CCl)cc1 (stereo not drawn) [compound 4]

isoTOP-ABPP ratio, O00622_C39 (CYR61 C39 (O00622); 500 μM): 9.6 | isoTOP-ABPP ratio, P04150_C302 (NR3C1 C302 (P04150); ramos): 1.5 | isoTOP-ABPP ratio, P16455_C145 (MGMT C145 (P16455); 500 μM, invitro, ramos): 20.0
Structure (SMILES): Cn1cc(S(=O)(=O)N2CCOCC2)cc1C(=O)NC(=O)CCl [compound 11]

isoTOP-ABPP ratio, O00622_C39 (CYR61 C39 (O00622); 500 μM): 1.2 | isoTOP-ABPP ratio, P16455_C145 (MGMT C145 (P16455); 500 μM, invitro, ramos): 20.0 | isoTOP-ABPP ratio Q9NYL2_C22 (MLTK C22 (Q9NYL2); 500 μM): 5.2
Structure (SMILES): O=C(CCl)NCCc1c[nH]c2ccccc12 [compound 13]

isoTOP-ABPP ratio (reactivity profile), P04150_C302 (NR3C1 C302 (P04150); 500 μm in-vitro ramos): 0.9 | isoTOP-ABPP ratio (reactivity profile), P16455_C145 (MGMT C145 (P16455)): 1.3
Structure (SMILES): C=CC(=O)N(Cc1cccnc1)c1ccc(Oc2ccccc2)c(C(F)(F)F)c1 [compound 15]

isoTOP-ABPP ratio (reactivity profile), O00622_C39 (CYR61 C39 (O00622)): 4.4 | isoTOP-ABPP ratio (reactivity profile), P04150_C302 (NR3C1 C302 (P04150); 500 μm in-vitro ramos): 4.7 | isoTOP-ABPP ratio (reactivity profile), P16455_C145 (MGMT C145 (P16455)): 1.0 | isoTOP-ABPP ratio (reactivity profile), Q9NYL2_C22 (MLTK C22 (Q9NYL2)): 1.4
Structure (SMILES): N#C/C(=C\c1cc(C(F)(F)F)cc(C(F)(F)F)c1)C(N)=O [compound 23]

isoTOP-ABPP ratio (reactivity profile), P16455_C145 (MGMT C145 (P16455)): 20.0
Structure (SMILES): CC(Br)C(=O)Nc1cc(C(F)(F)F)cc(C(F)(F)F)c1 (stereo not drawn) [compound 24]

isoTOP-ABPP ratio (reactivity profile), O00622_C39 (CYR61 C39 (O00622)): 1.0 | isoTOP-ABPP ratio (reactivity profile), Q9NYL2_C22 (MLTK C22 (Q9NYL2)): 0.8
Structure (SMILES): CC(Cl)C(=O)Nc1cc(C(F)(F)F)cc(C(F)(F)F)c1 (stereo not drawn) [compound 25]

isoTOP-ABPP ratio (reactivity profile), O00622_C39 (CYR61 C39 (O00622)): 1.0 | isoTOP-ABPP ratio (reactivity profile), P16455_C145 (MGMT C145 (P16455)): 20.0 | isoTOP-ABPP ratio (reactivity profile), Q9NYL2_C22 (MLTK C22 (Q9NYL2)): 1.4
Structure (SMILES): COc1ccccc1OCCNC(=O)CCl [compound 28]
